A melting point compilation (Tetko et al.; mined from patent text by program, amines drawn as free bases though some values may be those of a salt)

SMILES | melting point
COCOc1c(-c2cccc(C=CC(=O)O)c2)ccc2c1C(C)(C)CCC2(C)C | 188 to 189 °C
CCNC(=S)c1c(Cl)cccc1[Si](C)(C)C | 158 to 159 °C
O=[N+]([O-])c1ccc(SCl)c(C(Cl)(Cl)Cl)c1 | 56 to 57 °C
CC/C(=C\CCC(O)(CC)CC)c1ccc(CCc2ccc(CO)c(CO)c2)s1 | 77 °C
CCC(Cc1ccccc1)(NC(=O)CN)c1ccccc1 (stereo unspecified) | 108 to 110 °C
O=C(O)C(c1ccc([N+](=O)[O-])cc1)N1CCCC1 (stereo unspecified) | 103 to 105 °C
CCCN1c2ccc3c(c2CC1C(N)=O)CC(N)CC3 (single isomer, unassigned; (+)) | 230 °C
CCc1noc(CC(=O)c2ccccc2)c1C(=O)NC | 134 to 136 °C
CC(C)(C)NCC(O)COc1ccc2c(=O)cc(-c3cc(OCc4ccccc4)cc(OCc4ccccc4)c3)oc2c1 (stereo unspecified) | 170 to 171 °C
CCOC(=O)C(CCc1ccccc1)CC1(C(=O)O)CCCC1 (stereo unspecified) | 68 to 69 °C
CC(=O)c1c(-c2ccncc2)sc(-c2ccncc2)c1C | 137 to 138 °C
O=c1c(-c2ccccc2)c[nH]n1-c1cccc(Cl)c1 | 211 to 212 °C
Fc1ccc(-c2nc(S)[nH]c2-c2ccncc2)cc1 | 386 to 388 °C
COc1ccc(-c2ccc(C(=O)Nc3cc4ncc(CN5CCCC5)cc4cc3Cl)cc2)cc1 | 184 °C
CCOC(=O)c1cc(=O)c(Sc2ccc(OC)cc2)co1 | 90 to 92 °C
CCC1CCN(C(=O)C(N)CCSCc2cn(C(c3ccccc3)(c3ccccc3)c3ccccc3)cn2)CC1 (stereo unspecified) | 115 to 120 °C
Cc1nc(N)nc(N)c1N1CCN(c2ccc(C=NOCC(=O)OCCc3ccccc3)cc2)CC1 | 255 to 257 °C
COc1cccc(Cc2ccc(-c3cnn4c(O)ncnc34)cc2)c1 | 264 to 268 °C
CS(=O)c1nnc2n1C=Cc1cc(Cl)ccc1C2 (stereo unspecified) | 183 to 185 °C
COc1ccc(COc2cnc3c(S)cccn3c2=O)cc1 | > 230 °C
Cc1c(C)c2c(c(C)c1N)CC(C)(CN1CCC(Nc3ccccc3)CC1)O2 (stereo unspecified) | 116 to 118 °C
CCc1[nH]n(C2CCCC2)c2nc(CN3CCc4ccccc4C3)nc(=O)c1-2 | 149 to 151 °C
Cc1ccc(C(=O)Nc2ccc(CN3CCN(C)CC3)cc2)cc1Nc1nccc(-c2cccnc2)n1 | 153 to 155 °C
COc1ccc(C(=O)Sc2ccc(C(=O)O)cc2)cc1C12CC3CC(CC(C3)C1)C2 | 264 °C
CC(C)(C)OC(=O)N(C(=O)OC(C)(C)C)c1sc(-c2cncc(F)c2)nc1F | 143 °C
COc1c(F)cc(F)c(C(N)=O)c1F | 102 °C

SMILES | melting point
O=C1Nc2ccc(Cl)cc2C2(c3ccccc3)NCCCN12 (stereo unspecified) | 275 to 276 °C
O=c1ccn(-c2cccc(C(F)(F)F)c2)nc1-c1ccnn1-c1ccccc1Cl | 139 to 140 °C
c1ccc(CC[C@H]2CNCCN2)cc1 | 114 to 115 °C
OCCc1ccc(Oc2cc(C(F)(F)F)ccn2)cc1 | 78 to 79 °C
COc1nc(C)cnc1NS(=O)(=O)c1ccccc1-c1ccc(OC(C)C(=O)O)cc1 (stereo unspecified) | 188 to 190 °C
c1ccc(Cc2ccc(-c3ccccc3)[nH]2)cc1 | 82 to 84 °C
CS(=O)(=O)c1ccccc1C(=O)N1CCC(N2CCC(Oc3ccc(Cl)c(Cl)c3)CC2)CC1 | 141 °C
CC(=O)c1ccn2c(C)c(C)nc2c1N | 195 to 197 °C
N#Cc1cccc(NC(=O)c2ccc3ccccc3c2)c1 | 138 to 140 °C
Clc1ccc(OCc2ccccc2)cn1 | < 50 °C
COc1cc(N)c(Cl)cc1C(=O)NC1CCN(CCC(O)C(=O)c2ccc(F)cc2)CC1OC (stereo unspecified) | 146 °C
Cc1nc2ccc(S(=O)(=O)n3c(COC(C)C(=O)O)cc4cc(Cl)ccc43)cc2s1 (stereo unspecified) | 106 to 108 °C
CC(O)CN1C(=O)N(CC(C)O)C(C)(C)C1=O (stereo unspecified) | 65 to 67 °C
COc1ccccc1C1(Cl)C(=O)Nc2cc(C)c(Cl)cc21 (stereo unspecified) | 254 to 256 °C
CCCCCCCCCCC[C@H](CC(=O)N[C@@H](CO)C(=O)OCc1ccccc1)OC(=O)CCCCCCCC | 52 to 53 °C
CC(C)(C)OC(=O)NC(CC(=O)ON1C(=O)CCC1=O)c1ccc(-c2ccccc2)cc1 (stereo unspecified) | 161 °C
Clc1ccccc1/C=C/C1=CCN(Cc2c[nH]c3ncccc23)CC1 | 174 to 176 °C
CC(O)(C#Cc1ccc(S(=O)(=O)c2ccncc2)cc1)C(F)(F)F (stereo unspecified) | 122 to 125 °C
COCCOCCOCCOCCOc1ccc(N)cc1 | 42 to 44 °C
COCc1noc(-c2ncn3c2CN(C)C(=O)c2c(Cl)cccc2-3)n1 | 213 to 215 °C
CS(=O)(=O)c1ccc(C2=C(c3ccc(F)cc3)C(=O)C2(Cl)Cl)cc1 | 116 to 118 °C
COc1cc(OC)nc(NC(=O)NS(=O)(=O)c2ccccc2CCCl)n1 | 169 to 171 °C
COC(=O)NN=C(OC)OC | 78.5 to 81.5 °C
CC1(C)CN=C2C(c3ccccc3)=[N+]([O-])c3cc(C(F)(F)F)ccc3N2C1 | 225 to 227 °C
Cc1n[nH]c(=O)c(-c2c(F)cccc2Cl)c1-c1ccc(Cl)nc1 | 166 to 167 °C
Cc1cnc(CNC(=O)c2ccnc(N3CCN(Cc4ccc(F)cc4)C3=O)c2)cn1 | 169 to 171 °C

SMILES | melting point
N=C(NCC1(c2ccc(Cl)cc2)CC1)NN=Cc1c(Cl)cccc1Cl | 126 to 128 °C
Clc1ccc(CNc2nc(Cl)cc(Cl)n2)cc1 | 154 to 157 °C
Cc1nnc(-c2cc3c(-c4ccccc4Cl)coc3cn2)o1 | 162 to 163 °C
COc1cc2c(cc1C)CCN=C2C1(C2C=CCCC2)CCC1 (stereo unspecified) | 70 to 73 °C
CC1(C)Oc2ccc(C#Cc3ccccc3)cc2[C@@H](N)[C@@H]1O (relative stereo) | 162 to 164 °C
CCOC(=O)C1=C(C)Nc2n[nH]cc2C1c1ccccc1C(F)(F)F (stereo unspecified) | 259 to 262 °C
CCOC(=O)c1c(Cc2cc3c(cc2Cl)OCO3)c(-c2ccccc2)nn1CC1CCCCC1 | 130 °C
COc1ccc(CCN2CCC(NC(=O)C34CC5CC(CC(C5)C3)C4)C2)cc1 (stereo unspecified) | 81 to 83 °C
Cc1cc(=O)[nH]c2ccc(Cn3ccnc3)cc12 | 266 °C
Cc1ccc(C(=O)n2c3c(c4ccccc42)CC(C(=O)O)CC3)cc1 (stereo unspecified) | 210 to 212 °C
N#CC(=CNC1CC1)C(=O)c1cc(F)c(F)c(F)c1F | 88 to 89 °C
O=C(O)COc1c(I)cc(C(=O)c2c(Cc3ccccc3)oc3ccccc23)cc1I | 144 to 146 °C
COc1ccc(C2=NN(c3ccc(C(=O)Nc4ccc(C5=NNC(=O)CC5C)cc4)cc3)C(=O)C3CC=CCC23)cc1OC (stereo unspecified) | 249 to 250 °C
Cc1ccc(CC2CCN(C(=O)C(=O)O)CC2)cc1 | 133 to 135 °C
O=S(=O)(c1ccc(N2CCCCC2)cc1)N1CCCC1=S | 195 to 200 °C
COC(=O)C1(C(=O)O)CCc2cc(C3CCCCCC3)ccc21 (stereo unspecified) | 140 to 141 °C
Cc1ccc(S(=O)(=O)NC(=O)NC2N=C(c3ccccc3)c3ccccc3N(C)C2=O)cc1 (stereo unspecified) | 244 to 246 °C
COc1ccc(N2CCN(Cc3n[nH]c4cc(Cl)ccc34)CC2)cc1 | 182 to 184 °C
O=C1c2ccccc2C(=O)c2oc(-c3ccc(F)cc3)nc21 | > 260 °C
CC1(C)OC(c2ccc(S(C)(=O)=O)cc2)=C(c2ccc(O)cc2)C1=O | 150 to 152 °C
CCOC(=O)C1=C(N)NC(N)=C(C(=O)OCC)C1c1cccc(C(F)(F)F)c1 | 170 °C
CSC(=O)Cn1c(=O)sc2ccccc21 | 146 to 147 °C
CCNC(=N)N1CCc2[nH]cnc2C1CC (stereo unspecified) | 275 °C
CC(=O)OCC(=O)C1C(C)CC2C3CC(Cl)C4=CC(=O)C=CC4(C)C3(Cl)C(O)CC21C (stereo unspecified) | 238 °C
CN(C)CCC(c1ccccc1)c1ncc[nH]1 (stereo unspecified) | 135 to 136 °C
CC(=O)c1ccc2c(c1)C(C)(C)c1cccnc1O2 | 106 to 108 °C

SMILES | melting point
CCCCC1CCC(C2=C(Cl)C(=O)c3ccccc3C2=O)CC1 (stereo unspecified) | 107 to 110 °C
C=CCSc1nnc(C(C)(C)C)[nH]1 | 127 to 130 °C
O=C(O)CCc1ccc(OCc2cccc(-c3cncnc3)c2)cc1 | 166 to 167 °C
CN(C)S(=O)(=O)c1ccc2c(c1)C(O)c1ccccc1C=C2 (stereo unspecified) | 150 to 152 °C
O=C(C=Cc1ccc(Oc2ccccc2)cc1)c1ccc(C2CCCCC2)cc1 | 161 °C
OC(CCCN1CC=C(c2ccccc2)CC1)c1ccc(F)cc1 (stereo unspecified) | 116 to 117 °C
COC(=O)c1ccc(Cl)cc1NC(=O)CSc1ccc(C)cc1 | 91 to 93 °C
C=CCn1c(C)nc2c3c(c(C(=O)OC)cc21)C(=O)CC1(Cc2ccccc2C1)N3 | 216 to 217 °C
CCOCCOc1c(C)cc(-c2ccc3c(c2)C=C(C(=O)Nc2ccc(CN(C)C4CCOCC4)cc2)CCS3(=O)=O)cc1C | 211 to 212 °C
N=C(Nc1cccc(NC(=O)/C=C/c2ccccc2Cl)c1)c1ccccc1 | 262 to 264 °C
COc1cc(Nc2nc3cccc(-c4ccc(N)cc4)c3o2)cc(OC)c1OC | 192 to 196 °C
O=C(Nc1nnn[nH]1)c1cnc2sc3ccccc3n2c1=O | 330 to 332 °C
CC(C)OC(=O)N1CCC(c2ccc3nc(-c4ccc(S(C)(=O)=O)cc4F)oc3c2)CC1 | 170 to 174 °C
Cn1ccnc1SCC(=O)C12CC3CC(CC(C3)C1)C2 | 65 to 69 °C
CCc1nc2cc(F)ccc2c(=O)n1NC(=O)C(C)c1ccccc1 (stereo unspecified) | 57 to 63 °C
O=C(O)c1cc(C(F)(F)F)ccc1O | 149 to 151 °C
CCCc1nc(OC)c(NC(=S)N2CCN(c3cccc(O)c3)CC2)cc1C | 160 to 162 °C
Cc1c(OCc2ccccc2)ccc2cncn12 | 52 to 54 °C
CCCCCCCCCCCC(=O)N1c2ccccc2C(=O)N(C(C)C)S1(=O)=O | 57.5 to 58.5 °C
Cc1c(C)c2c(c(C)c1NC=O)CC(C)(CSc1nc3ccccc3s1)O2 (stereo unspecified) | 190 to 192 °C
CCOC(=O)c1cc(OC)c(C(=O)OCC)cc1Br | 61 to 63 °C
COc1ccc(CC(=O)NC(NC(=NC#N)Nc2ccccc2C)C(C)(C)C)cc1OC (stereo unspecified) | 156 to 157 °C
NNC(=O)c1ncn2c1C1CCN1C(=O)c1sccc1-2 (stereo unspecified) | 260 to 263 °C
